In ChEMBL document CHEMBL1649403, “CYP1A2-mediated biotransformation of cardioactive 2-thienylidene-3,4-methylenedioxybenzoylhydrazine (LASSBio-294) by rat liver microsomes and human recombinant CYP enzymes” (Eur J Med Chem, 2011):
Values belong to the compound of their own block, whether it stands above or below them.

Experiments:
Cytochrome P450 2C9 = Cytochrome P450 2C9 (Homo sapiens, UniProt P11712); experiment: Activity of human recombinant CYP2C9 assessed as compound remaining; assay type: ADME; details: recombinant enzyme
Cytochrome P450 2B6 = target: T1, Cytochrome P450 2B6 (Homo sapiens, UniProt P20813); experiment: Activity of human recombinant CYP2B6 assessed as compound remaining; assay type: ADME; details: recombinant enzyme
T1 sequence (P20813 whole entry): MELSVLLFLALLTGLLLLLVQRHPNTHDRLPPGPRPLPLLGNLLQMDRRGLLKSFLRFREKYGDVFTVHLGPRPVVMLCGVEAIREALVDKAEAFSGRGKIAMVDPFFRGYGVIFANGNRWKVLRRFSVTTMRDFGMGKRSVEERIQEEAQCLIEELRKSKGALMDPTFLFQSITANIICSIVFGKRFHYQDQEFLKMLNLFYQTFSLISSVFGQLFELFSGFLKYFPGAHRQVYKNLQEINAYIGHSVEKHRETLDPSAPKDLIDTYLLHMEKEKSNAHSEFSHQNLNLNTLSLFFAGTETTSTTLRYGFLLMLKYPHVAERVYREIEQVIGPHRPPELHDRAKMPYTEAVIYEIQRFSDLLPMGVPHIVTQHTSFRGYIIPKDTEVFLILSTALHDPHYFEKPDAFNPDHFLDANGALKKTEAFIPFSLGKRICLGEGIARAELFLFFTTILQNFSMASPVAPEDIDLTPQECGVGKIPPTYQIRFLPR

Cytochrome P450 3A4 = Cytochrome P450 3A4 (Homo sapiens, UniProt P08684); experiment: Activity of human recombinant CYP3A4 assessed as compound remaining; assay type: ADME; details: recombinant enzyme
Cytochrome P450 2C8 = target: T2, Cytochrome P450 2C8 (Homo sapiens, UniProt P10632); experiment: Activity of human recombinant CYP2C8 assessed as compound remaining; assay type: ADME; details: recombinant enzyme
T2 sequence (P10632 whole entry): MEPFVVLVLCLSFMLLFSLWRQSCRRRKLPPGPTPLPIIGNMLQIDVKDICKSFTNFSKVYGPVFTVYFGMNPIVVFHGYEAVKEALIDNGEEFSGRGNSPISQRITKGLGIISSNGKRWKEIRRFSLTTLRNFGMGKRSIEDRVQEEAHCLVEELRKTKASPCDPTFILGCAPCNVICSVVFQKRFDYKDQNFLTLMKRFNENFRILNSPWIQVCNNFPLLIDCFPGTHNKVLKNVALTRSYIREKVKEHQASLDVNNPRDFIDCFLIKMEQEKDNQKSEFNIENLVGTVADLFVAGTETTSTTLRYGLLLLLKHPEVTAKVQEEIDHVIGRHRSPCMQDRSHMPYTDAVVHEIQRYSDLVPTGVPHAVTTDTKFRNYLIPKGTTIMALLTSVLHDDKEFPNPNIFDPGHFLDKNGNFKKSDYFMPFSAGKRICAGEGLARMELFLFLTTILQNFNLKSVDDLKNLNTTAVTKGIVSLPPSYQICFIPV

Cytochrome P450 2C19 = Cytochrome P450 2C19 (Homo sapiens, UniProt P33261); experiment: Activity of human recombinant CYP2C19 assessed as compound remaining; assay type: ADME; details: recombinant enzyme
Cytochrome P450 3A5 = Cytochrome P450 3A5 (Homo sapiens, UniProt P20815); experiment: Activity of human recombinant CYP3A5 assessed as compound remaining; assay type: ADME; details: recombinant enzyme
Cytochrome P450 1A2 = target: T3, Cytochrome P450 1A2 (Homo sapiens, UniProt P05177); experiment: Activity of human recombinant CYP1A2 assessed as compound remaining; assay type: ADME; details: recombinant enzyme
T3 sequence (P05177 whole entry): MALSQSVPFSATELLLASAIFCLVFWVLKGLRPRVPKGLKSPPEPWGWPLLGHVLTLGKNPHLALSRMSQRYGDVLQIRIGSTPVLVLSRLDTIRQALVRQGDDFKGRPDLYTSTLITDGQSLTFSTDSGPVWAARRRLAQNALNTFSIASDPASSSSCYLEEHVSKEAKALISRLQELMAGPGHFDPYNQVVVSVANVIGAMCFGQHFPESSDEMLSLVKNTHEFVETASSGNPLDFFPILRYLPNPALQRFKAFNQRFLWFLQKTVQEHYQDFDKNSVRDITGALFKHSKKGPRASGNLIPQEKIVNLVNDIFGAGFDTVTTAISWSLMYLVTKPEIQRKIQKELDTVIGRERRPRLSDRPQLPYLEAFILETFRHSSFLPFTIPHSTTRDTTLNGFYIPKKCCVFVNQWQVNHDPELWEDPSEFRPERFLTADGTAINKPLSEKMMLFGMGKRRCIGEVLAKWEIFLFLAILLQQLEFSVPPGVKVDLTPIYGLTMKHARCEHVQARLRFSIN

Cytochrome P450 2D6 = Cytochrome P450 2D6 (Homo sapiens, UniProt P10635); experiment: Activity of human recombinant CYP2D6 assessed as compound remaining; assay type: ADME; details: recombinant enzyme
Liver microsomes [1] = experiment: Metabolic stability in rat liver microsomes in presence of CYP1A2 inhibitor furafylline; assay type: ADME, Microsome
Liver microsomes [2] = experiment: Metabolic stability in rat liver microsomes in presence of non-selective cytochrome P450 inhibitor ketoconazole; assay type: ADME, Microsome
Liver microsomes [3] = experiment: Metabolic stability in rat liver microsomes in presence of CYP2D6 inhibitor quinidine; assay type: ADME, Microsome
Liver microsomes [4] = experiment: Metabolic stability in rat liver microsomes in presence of CYP2C9 inhibitor sulfaphenazole; assay type: ADME, Microsome

Chain of Cytochrome P450 3A4 (P08684 whole entry): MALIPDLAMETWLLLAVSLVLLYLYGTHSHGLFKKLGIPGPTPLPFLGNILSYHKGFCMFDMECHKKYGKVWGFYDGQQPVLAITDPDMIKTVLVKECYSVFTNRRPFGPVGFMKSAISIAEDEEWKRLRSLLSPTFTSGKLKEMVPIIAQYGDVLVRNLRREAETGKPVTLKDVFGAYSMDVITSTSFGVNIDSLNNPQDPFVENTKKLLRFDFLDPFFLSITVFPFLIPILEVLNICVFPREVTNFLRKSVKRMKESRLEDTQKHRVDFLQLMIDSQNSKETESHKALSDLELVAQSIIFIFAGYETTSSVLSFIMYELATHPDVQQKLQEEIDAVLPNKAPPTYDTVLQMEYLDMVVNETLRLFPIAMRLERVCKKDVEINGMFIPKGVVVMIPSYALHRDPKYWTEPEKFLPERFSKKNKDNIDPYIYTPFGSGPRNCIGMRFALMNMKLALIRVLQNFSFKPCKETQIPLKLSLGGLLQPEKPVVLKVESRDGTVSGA
Chain of Cytochrome P450 2D6 (P10635 whole entry): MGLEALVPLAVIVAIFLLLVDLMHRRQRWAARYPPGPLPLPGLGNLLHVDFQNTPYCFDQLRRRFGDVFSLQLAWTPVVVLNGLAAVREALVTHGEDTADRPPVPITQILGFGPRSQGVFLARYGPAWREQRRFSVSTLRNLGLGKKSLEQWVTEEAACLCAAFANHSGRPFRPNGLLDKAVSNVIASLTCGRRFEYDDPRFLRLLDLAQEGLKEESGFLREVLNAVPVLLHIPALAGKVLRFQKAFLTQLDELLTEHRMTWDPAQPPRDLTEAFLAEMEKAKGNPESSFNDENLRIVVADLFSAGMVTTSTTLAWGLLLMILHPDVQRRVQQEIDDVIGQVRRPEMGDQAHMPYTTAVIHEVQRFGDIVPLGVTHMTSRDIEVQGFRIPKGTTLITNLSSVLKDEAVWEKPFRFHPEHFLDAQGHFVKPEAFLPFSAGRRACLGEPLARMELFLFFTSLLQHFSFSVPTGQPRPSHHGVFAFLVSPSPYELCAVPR
Chain of Cytochrome P450 3A5 (P20815 whole entry): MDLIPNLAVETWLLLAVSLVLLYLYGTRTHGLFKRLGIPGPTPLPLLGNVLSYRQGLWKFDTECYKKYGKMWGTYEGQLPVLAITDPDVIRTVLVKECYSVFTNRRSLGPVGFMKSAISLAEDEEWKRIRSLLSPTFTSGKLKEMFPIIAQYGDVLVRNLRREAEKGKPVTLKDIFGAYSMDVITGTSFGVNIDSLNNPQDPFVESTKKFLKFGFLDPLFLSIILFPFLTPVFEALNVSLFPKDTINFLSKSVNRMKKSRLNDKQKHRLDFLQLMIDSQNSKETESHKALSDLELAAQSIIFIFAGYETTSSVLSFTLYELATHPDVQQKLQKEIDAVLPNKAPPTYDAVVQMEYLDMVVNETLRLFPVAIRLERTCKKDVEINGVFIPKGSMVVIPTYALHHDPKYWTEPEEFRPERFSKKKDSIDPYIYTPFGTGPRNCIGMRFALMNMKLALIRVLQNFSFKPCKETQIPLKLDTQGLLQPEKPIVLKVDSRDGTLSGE
Chain of Cytochrome P450 2C9 (P11712 whole entry): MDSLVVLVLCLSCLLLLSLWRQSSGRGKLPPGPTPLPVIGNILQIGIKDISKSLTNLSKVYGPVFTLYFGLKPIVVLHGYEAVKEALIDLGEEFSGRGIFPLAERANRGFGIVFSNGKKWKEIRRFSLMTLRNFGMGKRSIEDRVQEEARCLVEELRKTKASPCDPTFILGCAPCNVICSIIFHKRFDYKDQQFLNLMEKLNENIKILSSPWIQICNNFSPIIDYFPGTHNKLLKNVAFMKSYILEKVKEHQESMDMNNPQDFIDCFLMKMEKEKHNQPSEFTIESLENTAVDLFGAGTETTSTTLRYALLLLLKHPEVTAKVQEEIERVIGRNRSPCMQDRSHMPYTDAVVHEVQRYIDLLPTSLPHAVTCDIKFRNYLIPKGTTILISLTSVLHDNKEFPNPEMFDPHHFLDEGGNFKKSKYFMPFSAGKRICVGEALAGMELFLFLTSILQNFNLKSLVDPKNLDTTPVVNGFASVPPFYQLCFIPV
Chain of Cytochrome P450 2C19 (P33261 whole entry): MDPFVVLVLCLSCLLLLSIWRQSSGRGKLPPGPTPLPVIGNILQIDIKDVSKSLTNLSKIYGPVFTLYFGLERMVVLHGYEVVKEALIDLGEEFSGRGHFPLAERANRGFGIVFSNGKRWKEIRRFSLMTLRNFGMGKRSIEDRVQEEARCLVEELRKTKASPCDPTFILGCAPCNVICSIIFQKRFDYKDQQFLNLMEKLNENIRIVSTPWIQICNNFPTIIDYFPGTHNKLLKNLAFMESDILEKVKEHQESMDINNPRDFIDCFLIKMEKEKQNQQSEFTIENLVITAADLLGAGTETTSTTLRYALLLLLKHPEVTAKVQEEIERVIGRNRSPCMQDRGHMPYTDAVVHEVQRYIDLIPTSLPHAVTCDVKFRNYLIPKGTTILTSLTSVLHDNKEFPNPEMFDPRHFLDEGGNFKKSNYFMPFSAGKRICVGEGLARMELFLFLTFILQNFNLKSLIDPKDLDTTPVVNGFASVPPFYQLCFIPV

Structure (SMILES): O=C(N/N=C/c1cccs1)c1ccc2c(c1)OCO2
- Activity (Cytochrome P450 2C9): 81%
- Activity (Cytochrome P450 2B6): 98%
- Activity (Cytochrome P450 3A4): 92%
- Activity (Cytochrome P450 2C8): 99%
- Activity (Cytochrome P450 2C19): 96%
- Activity (Cytochrome P450 3A5): 100%
- Activity (Cytochrome P450 1A2): 67%
- Activity (Cytochrome P450 2D6): 95%

Structure (SMILES): Cc1nc2c([nH]1)c(=O)n(C)c(=O)n2Cc1ccco1 [FURAFYLLINE]
- Stability (Liver microsomes [1]): 0.12 µM

Structure (SMILES): CC(=O)N1CCN(c2ccc(OCC3COC(Cn4ccnc4)(c4ccc(Cl)cc4Cl)O3)cc2)CC1 (configuration not stated) [KETOCONAZOLE]
- Stability (Liver microsomes [2]): 0.31 µM

The next lines start with the values.

- Stability (Liver microsomes [3]): 0.91 µM
Structure (SMILES): C=C[C@H]1C[N@@]2CC[C@H]1C[C@@H]2[C@@H](O)c1ccnc2ccc(OC)cc12 [QUINIDINE]

- Stability (Liver microsomes [4]): 0.85 µM
Structure (SMILES): Nc1ccc(S(=O)(=O)Nc2ccnn2-c2ccccc2)cc1 [SULFAPHENAZOLE]
